In patent publication US20080033041A1, “USE OF PHENYLETHANOLAMINOTETRALINES FOR PREPARING ANXIOLYTIC DRUGS” (SANOFI-AVENTIS, priority 2004, published 2008):

What was measured:
[1] = tested on: Sprague-Dawley and Wistar rats; test: Punished Drinking test; type: in vivo, rat; conditions: 10 mg/kg i.p., 30 minutes after injection, 5-minute period, control 10
Protocol: 4) The Punished Drinking Test (Griebel et al., (2002), ibid.) Male Sprague-Dawley and Wistar rats (Iffa Credo, L'Arbresle, and Charles River, Saint-Aubin-lès-Elbeuf, France), weighing 180 to 250 g were used. Experiments were performed 30 minutes after i.p. injection of 10 mg/kg of the drug or vehicle. The procedure was a modification of the technique described by Vogel et al., Psychopharmacologia, (1971), 21, p. 1-7. At the beginning of the experiment, rats, deprived of water but not of food for 48 hours prior to testing, were placed in cages (32×25×30 cm) with a stainless steel grid floor. Each cage was placed in sound-attenuated boxes that were well ventilated and contained a drinking tube connected to an external 50 mL burette filled with tap water. Trials were started only after the animal's tongue entered in contact with the drinking tube for the first time. An electric shock (0.6 mA/500 ms) was delivered to the tongue after every twenty licks. The number of shocks was recorded automatically during a 5-minute period. Subsequent comparisons between treatment groups and control were carried out using Dunnett's t-test.

[2] = tested on: rats of the Wistar strain; test: Ultrasonic Vocalizations (USVs) test; type: in vivo, rat; conditions: 10 mg/kg i.p.
From the text: 3) The Ultrasonic Vocalizations (USVs) Test
(Molewijk et al., Psychopharmacology, (1996),128, p. 31-38)
The animals, their preparation and the i.p. dosage of compound to be tested are the same as those described in the Novelty Induced Grooming test.
This test consists of two different sessions: training and testing sessions. In the training procedure, all animals were trained for 2 days prior to testing. Training consisted of placing the animal in a standard operant chamber (ENV-018M, Med Associates, Georgia, Vt.) where shock could be delivered from a programmable shocker (Model ENV-413, Med Associates) and where it is equipped with an ultrasonic detector (Mini-3 Bat Detector, Ultra Sound Advice, UK). On each of two consecutive days, all the animals received 20 shocks (1 mA, 4 seconds) separated by a random interval that averaged 60 seconds and ranging from 30 to 90 seconds. Each shock was administered concurrently with a 4-Watt light and an acoustic tone (85 dB, 4 s). The chamber was dark between each shock presentation.
On the day following training, animals were administered 10 mg/kg of compound A and placed in the operant apparatus for testing. […] USVs (18-22 KHz) were recorded over the intertrial interval and were expressed as a sum of total time spent vocalizing for each animal. […]

OF1 mice = test: Mouse Defense test Battery; type: in vivo; conditions: 1 hour after administration
Protocol: 6) The Mouse Defense test Battery (Griebel et al., (2002), ibid.) Male OF1 mice weighing 17 to 32 g were supplied by Charles River, Iffa Credo or Janvier (Le Genest, France). Experiments were performed 1 hour after p.o. administration of 0.3 mg/kg or 3 mg/kg of the drug or vehicle. The test was conducted in an oval runway as described (Griebel et al., 1997), 23, p. 19-31). Tested mice were submitted to a 3-minute familiarization period sixty minutes after p.o. administration of compound A. (a) The rat avoidance test/flight: Immediately after the 3-minute familiarization period, the experimenter introduced a hand-held dead rat (killed by CO2 inhalation just before the beginning of the experiment) five times at one end of the runway. The following parameter was recorded: avoidance distance (cm). (b) Risk Assessment/Chase Test: The rat was then brought up to the subject at a speed of approximately 2 m/s. A constant distance of 2 meters separated the rat and the subject when the former was introduced in the runway. The following parameter was recorded: number of stops (pauses in movement). The rat was removed after the chase was completed. (c) Defensive Aggression/Straight Alley: By the closing of two doors (60 cm distant from each other), the runway was then converted to a straight alley in which the subject was constrained. The experimenter brought the rat up to contact the subject in the straight alley. Approaches were directed quickly (within 1 second) to the subject's head. For each such contact, bites by the subjects were recorded.

[3] = tested on: rats of the Wistar strain; test: Novelty Induced Grooming Test; type: in vivo, rat; conditions: 10 mg/kg i.p., 30 min before test, 30-minute session, control 37 (±3.61)
Protocol: 1) The Novelty Induced Grooming Test
(Gipsen et al., (1975), ibid.)
Male rats of the Wistar strain (purchased from Morini, Italy) weighing from 200 to 220 g were used throughout this test. All animals were gently manipulated by experienced facilities' handlers, avoiding any environmental or physical stress. Compounds according to the invention to be tested were injected intraperitoneally (i.p.) to a group of rats at a dosage 10 mg/kg. Control animals received i.p. the same volume of the vehicle (i.e, physiological saline). […]
Rats were placed individually into plexiglas boxes (24×12×24 cm) in a low noise room. After a minute of adaptation, the behaviour of the rats was sampled every 15 seconds, and the occurrence of grooming was recorded in a session of 30 minutes. The occurrence of the following single elements of grooming was scored as grooming: washing (i.e., vibrating movements of the fore paws in front of the snout and licking of the same paws leading to a series of strokes along the snout and semicircular movements over the top of the head), scratching (that is scratching of the body by one of the limbs), licking (that is licking of the body fur, limbs and tail), and genital grooming (that is licking of genital area). Grooming behaviour of all animals was recorded on a tape using a video-camera (Hitachi Videocam) and then replayed and scored by two independent observers. […]

[4] = tested on: rats of the Wistar strain; test: Elevated Plus Maze test; type: in vivo, rat; conditions: 10 mg/kg i.p., 5 minutes observation
From the text: 2) The Elevated Plus Maze Test (Pellow S. et al., Journal of Neuroscience Methods, (1985), 14(3), p.149-67) The animals, their preparation and the i.p. dosage of compound to be tested are the same as those described in the Novelty Induced Grooming test. The apparatus consisted of a plus-shaped maze, elevated of 50 centimetres from the floor, with two opposite open arms (50×10 cm) crossed at right angles by two arms of the same dimensions, but enclosed by 40-centimetre high walls with an open roof. In addition, a 1-centimetre high edge made of plexiglas surrounded the open arms to avoid falls. Illumination measured at the centre of the maze was 40 lux. After treatment, the animal was placed at the centre of the plus maze with its nose in the direction of one of the closed arms, and observed for 5 minutes, according to the following parameters: number of entries in the open and closed arms (this parameter can also be expressed by means of percentage of entries in the open arms), and time of presence in each of them (this parameter can also be expressed by means of percentage of time stayed in the open arms. The time of presence measures the time spent by the animal in the open and closed arms. The animals were divided into four groups with 7 animals per group.

Mongolian gerbils = test: Social Interaction test; type: in vivo, gerbil; conditions: 10 mg/kg p.o., 1 hour after administration, control 30 seconds
Protocol: 5) The Social Interaction Test (Salomé et al., Sanofi-Synthelabo Research, CNS Department, Bagneux, France, ibid.) Male Mongolian gerbils (7-week old, 50-60 g, CERJ, France) were used. Experiments were performed 1 hour after per os (p.o.) administration of 10 mg/kg of the drug or vehicle. The procedure was based on that described initially by File et al., Brain Res., (2001), 888, p. 311-313. Testing lasting two days. On day 1, gerbils were placed individually in a plastic box (30×30×20 cm) under high light conditions (300 lux) for a 10-minute free-exploration period to familiarize with the apparatus. Twenty-four hours later, two gerbils of the same weight but unfamiliar to each other were placed together in the box they had previously explored for a 4 minute 30 seconds observation period. Interaction time (sniffing, chasing, grooming the partner) was recorded manually for each pair of gerbils. Locomotor activity (distance travelled in centimetres) was measured with an automated tracking system (Ethovision, Noldus).

## CCOC(=O)COc1ccc2c(c1)C[C@@H](NC[C@H](O)c1cccc(Cl)c1)CC2.Cl [compound A, ethyl [(7S) 7-[(2R) 2-(3-chlorophenyl)-2-hydroxyethylamino]-5,6,7,8-tetrahydronaphthalen-2yloxy]-acetate hydrochloride]
[1]
  Number of shocks (punished responding): 30 shocks
[2]
  decrease of conditioned USVs versus control: ~50%
[2]; control more than 210 seconds
  Conditioned USVs duration (total time spent vocalizing): < 120 s
OF1 mice; 0.3 mg/kg p.o., control about 2.75 times
  Number of bites (defensive aggression/straight alley): about 1.3 times
OF1 mice; 3 mg/kg p.o., control 9 stops
  Number of stops (risk assessment/chase test): 6 stops
OF1 mice; 3 mg/kg p.o., control 120 cm
  Avoidance distance (rat avoidance test/flight): 75 cm
[3]
  Number of grooming episodes: 17.71 (±5.91)
[4]; control 4
  mean number of entries into the open arms: 7
[4]; control 32%
  percentage of time in the open arms: 42%
[4]; control 40%
  percentage of entries into the open arms: 50%
[4]; control 78 seconds
  mean time spent in the open arms: 98 s
Mongolian gerbils
  Social interaction time: 70 s
